Measured values taken from patent US10745384B2, “Indazole derivatives as αv integrin antagonists” (BRISTOL-MYERS SQUIBB COMPANY, priority 2016, dated 2020).

Target: T1, human αVβ6 (Homo sapiens, UniProt P06756+P18564)
T1 construct: purchased R & D systems 3817-AV
Assay: human αVβ6 HTRF binding assay
Conditions: recombinant human αVβ6 integrin, FITC-conjugated fibronectin
Procedure, shortened: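 HTRF binding in 20 mM Tris pH 7.4 with 1 mM MgCl2, 1 mM MnCl2, 0.01% Tween 20 and 0.01% BSA. For αVβ6, biotinylated integrin (1.25 nM) and FITC-fibronectin (5 nM) were incubated 1 h at RT, then streptavidin-terbium (0.625 nM) was added overnight in the dark. An SPA-based fibronectin binding format was an alternative.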

T1 sequence (P06756 31-992 limits assumed): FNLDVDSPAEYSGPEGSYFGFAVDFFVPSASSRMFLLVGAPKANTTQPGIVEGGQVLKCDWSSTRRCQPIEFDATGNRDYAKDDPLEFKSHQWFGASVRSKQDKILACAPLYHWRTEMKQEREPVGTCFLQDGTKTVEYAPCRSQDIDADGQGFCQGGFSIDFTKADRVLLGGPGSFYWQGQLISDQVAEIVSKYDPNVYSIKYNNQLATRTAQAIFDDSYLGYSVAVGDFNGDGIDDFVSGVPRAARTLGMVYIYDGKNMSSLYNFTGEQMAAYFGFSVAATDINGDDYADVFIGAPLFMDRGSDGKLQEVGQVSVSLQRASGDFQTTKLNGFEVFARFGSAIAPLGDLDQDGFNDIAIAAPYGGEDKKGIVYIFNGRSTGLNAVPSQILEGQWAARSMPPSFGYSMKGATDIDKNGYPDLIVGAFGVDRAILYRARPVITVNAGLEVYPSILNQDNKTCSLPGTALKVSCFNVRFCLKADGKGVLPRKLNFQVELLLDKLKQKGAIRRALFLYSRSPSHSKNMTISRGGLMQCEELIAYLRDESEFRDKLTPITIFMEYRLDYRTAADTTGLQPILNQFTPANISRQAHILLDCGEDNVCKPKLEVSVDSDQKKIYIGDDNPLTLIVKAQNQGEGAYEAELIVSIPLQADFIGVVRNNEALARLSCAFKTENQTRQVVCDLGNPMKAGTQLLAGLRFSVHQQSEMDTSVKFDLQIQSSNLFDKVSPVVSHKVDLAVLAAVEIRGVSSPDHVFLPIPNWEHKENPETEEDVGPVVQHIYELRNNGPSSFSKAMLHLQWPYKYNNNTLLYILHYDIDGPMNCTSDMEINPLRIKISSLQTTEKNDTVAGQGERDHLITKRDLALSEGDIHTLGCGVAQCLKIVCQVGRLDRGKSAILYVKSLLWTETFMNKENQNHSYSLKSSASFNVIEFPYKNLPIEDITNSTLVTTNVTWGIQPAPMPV
T1 sequence (P18564 22-707 limits assumed): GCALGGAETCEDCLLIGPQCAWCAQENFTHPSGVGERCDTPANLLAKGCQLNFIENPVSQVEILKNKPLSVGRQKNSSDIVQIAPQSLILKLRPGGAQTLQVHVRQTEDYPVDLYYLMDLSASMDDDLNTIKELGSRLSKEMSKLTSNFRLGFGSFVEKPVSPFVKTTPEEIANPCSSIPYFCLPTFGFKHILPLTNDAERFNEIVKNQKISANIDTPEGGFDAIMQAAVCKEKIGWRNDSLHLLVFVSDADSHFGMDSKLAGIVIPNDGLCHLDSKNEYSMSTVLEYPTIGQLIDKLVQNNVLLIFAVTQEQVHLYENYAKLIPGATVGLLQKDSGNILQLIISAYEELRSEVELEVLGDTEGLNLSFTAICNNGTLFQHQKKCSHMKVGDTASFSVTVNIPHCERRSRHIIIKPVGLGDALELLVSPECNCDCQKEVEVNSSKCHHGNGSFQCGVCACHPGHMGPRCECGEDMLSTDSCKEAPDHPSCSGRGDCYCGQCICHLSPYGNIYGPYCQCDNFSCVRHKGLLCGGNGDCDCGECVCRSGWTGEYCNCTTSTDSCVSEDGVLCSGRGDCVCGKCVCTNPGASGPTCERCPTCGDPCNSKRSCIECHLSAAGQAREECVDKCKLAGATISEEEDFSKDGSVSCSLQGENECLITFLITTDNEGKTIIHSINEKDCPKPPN

IC50	Compound
1900 nM	CC(C)(O)c1cncc([C@@H](CC(=O)O)n2ncc3cc(OCCc4ccc5c(n4)NCCC5)ccc32)c1 [Example 145, (R)-3-(5-(2-hydroxypropan-2-yl)pyridin-3-yl)-3-(5-(2-(5,6,7,8-tetrahydro-1,8-naphthyridin-2-yl)ethoxy)-1H-indazol-1-yl)propanoic acid]
5.2 nM	CC(C)(O)c1cncc([C@H](CC(=O)O)n2ncc3cc(OCCc4ccc5c(n4)NCCC5)ccc32)c1 [Example 146, (S)-3-(5-(2-hydroxypropan-2-yl)pyridin-3-yl)-3-(5-(2-(5,6,7,8-tetrahydro-1,8-naphthyridin-2-yl)ethoxy)-1H-indazol-1-yl)propanoic acid]
620 nM	COc1ncc([C@@H](CC(=O)O)n2ncc3cc(OCCc4ccc5c(n4)NCCC5)ccc32)cn1 [Example 147, (R)-3-(2-methoxypyrimidin-5-yl)-3-(5-(2-(5,6,7,8-tetrahydro-1,8-naphthyridin-2-yl)ethoxy)-1H-indazol-1-yl)propanoic acid]
18 nM	COc1ncc([C@H](CC(=O)O)n2ncc3cc(OCCc4ccc5c(n4)NCCC5)ccc32)cn1 [Example 148, (S)-3-(2-methoxypyrimidin-5-yl)-3-(5-(2-(5,6,7,8-tetrahydro-1,8-naphthyridin-2-yl)ethoxy)-1H-indazol-1-yl)propanoic acid]
2300 nM	COc1cncc(C(CC(=O)O)n2ncc3cc(OCCc4ccc5c(n4)NCCC5)ccc32)n1 (centres unmarked) [Example 149, 3-(6-methoxypyrazin-2-yl)-3-(5-(2-(5,6,7,8-tetrahydro-1,8-naphthyridin-2-yl)ethoxy)-1H-indazol-1-yl)propanoic acid]
110 nM	O=C(O)C[C@H](c1cncc(N2CCCC2=O)c1)n1ncc2cc(OCCc3ccc4c(n3)NCCC4)ccc21 [Example 150, (R)-3-(5-(2-oxopyrrolidin-1-yl)pyridin-3-yl)-3-(5-(2-(5,6,7,8-tetrahydro-1,8-naphthyridin-2-yl)ethoxy)-1H-indazol-1-yl)propanoic acid]
1 nM	O=C(O)C[C@@H](c1cncc(N2CCCC2=O)c1)n1ncc2cc(OCCc3ccc4c(n3)NCCC4)ccc21 [Example 151, (5)-3-(5-(2-oxopyrrolidin-1-yl)pyridin-3-yl)-3-(5-(2-(5,6,7,8-tetrahydro-1,8-naphthyridin-2-yl)ethoxy)-1H-indazol-1-yl)propanoic acid]
22 nM	O=C(O)CC(c1cncc(C(=O)N2CCOCC2)c1)n1ncc2cc(OCCc3ccc4c(n3)NCCC4)ccc21 (centres unmarked) [Example 152, 3-(5-(morpholine-4-carbonyl)pyridin-3-yl)-3-(5-(2-(5,6,7,8-tetrahydro-1,8-naphthyridin-2-yl)ethoxy)-1H-indazol-1-yl)propanoic acid]
17 nM	CN(C)C(=O)c1cncc(C(CC(=O)O)n2ncc3cc(OCCc4ccc5c(n4)NCCC5)ccc32)c1 (centres unmarked) [Example 153, 3-(5-(dimethylcarbamoyl)pyridin-3-yl)-3-(5-(2-(5,6,7,8-tetrahydro-1,8-naphthyridin-2-yl)ethoxy)-1H-indazol-1-yl)propanoic acid]
29 nM	CN1CCN(C(=O)c2cncc(C(CC(=O)O)n3ncc4cc(OCCc5ccc6c(n5)NCCC6)ccc43)c2)CC1 (centres unmarked) [Example 154, 3-(5-(4-methylpiperazine-1-carbonyl)pyridin-3-yl)-3-(5-(2-(5,6,7,8-tetrahydro-1,8-naphthyridin-2-yl)ethoxy)-1H-indazol-1-yl)propanoic acid]
5.3 nM	O=C(O)CC(c1cncc(C2CC2)c1)n1ncc2cc(OCCc3ccc4c(n3)NCCC4)ccc21 (centres unmarked) [Example 155, 3-(5-cyclopropylpyridin-3-yl)-3-(5-(2-(5,6,7,8-tetrahydro-1,8-naphthyridin-2-yl)ethoxy)-1H-indazol-1-yl)propanoic acid]
8.8 nM	CN1CCN(c2cncc(C(CC(=O)O)n3ncc4cc(OCCc5ccc6c(n5)NCCC6)ccc43)c2)CC1 (centres unmarked) [Example 156, 3-(5-(4-methylpiperazin-1-yl)pyridin-3-yl)-3-(5-(2-(5,6,7,8-tetrahydro-1,8-naphthyridin-2-yl)ethoxy)-1H-indazol-1-yl)propanoic acid]
32 nM	O=C(O)CC(c1cncc(C(=O)N2CCC2)c1)n1ncc2cc(OCCc3ccc4c(n3)NCCC4)ccc21 (centres unmarked) [Example 157, 3-(5-(azetidine-1-carbonyl)pyridin-3-yl)-3-(5-(2-(5,6,7,8-tetrahydro-1,8-naphthyridin-2-yl)ethoxy)-1H-indazol-1-yl)propanoic acid]
13 nM	CN(C)CCNC(=O)c1cncc(C(CC(=O)O)n2ncc3cc(OCCc4ccc5c(n4)NCCC5)ccc32)c1 (centres unmarked) [Example 158, 3-(5-((2-(dimethylamino)ethyl)carbamoyl)pyridin-3-yl)-3-(5-(2-(5,6,7,8-tetrahydro-1,8-naphthyridin-2-yl)ethoxy)-1H-indazol-1-yl)propanoic acid]
47 nM	Cc1ncc([C@H](CC(=O)O)n2ncc3cc(OCCc4ccc5c(n4)NCCC5)ccc32)cn1 [Example 159, (S)-3-(2-methylpyrimidin-5-yl)-3-(5-(2-(5,6,7,8-tetrahydro-1,8-naphthyridin-2-yl)ethoxy)-1H-indazol-1-yl)propanoic acid]
2600 nM	Cc1ncc([C@@H](CC(=O)O)n2ncc3cc(OCCc4ccc5c(n4)NCCC5)ccc32)cn1 [Example 160, (R)-3-(2-methylpyrimidin-5-yl)-3-(5-(2-(5,6,7,8-tetrahydro-1,8-naphthyridin-2-yl)ethoxy)-1H-indazol-1-yl)propanoic acid]

IC50	Compound
5.5 nM	O=C(O)CC(c1cncc(-n2cccn2)c1)n1ncc2cc(OCCc3ccc4c(n3)NCCC4)ccc21 (centres unmarked) [Example 161, 3-(5-(1H-pyrazol-1-yl)pyridin-3-yl)-3-(5-(2-(5,6,7,8-tetrahydro-1,8-naphthyridin-2-yl)ethoxy)-1H-indazol-1-yl)propanoic acid]
730 nM	CCCC(CC(=O)O)n1ncc2cc(OCCc3ccc4c(n3)NCCC4)ccc21 (centres unmarked) [Example 162, 3-(5-(2-(5,6,7,8-tetrahydro-1,8-naphthyridin-2-yl)ethoxy)-1H-indazol-1-yl)hexanoic acid]
3.8 nM	CN(C)c1cncc(C(CC(=O)O)n2ncc3cc(OCCc4ccc5c(n4)NCCC5)ccc32)c1 (centres unmarked) [Example 163, 3-(5-(dimethylamino)pyridin-3-yl)-3-(5-(2-(5,6,7,8-tetrahydro-1,8-naphthyridin-2-yl)ethoxy)-1H-indazol-1-yl)propanoic acid]
3200 nM	O=C(O)CC(C1CCCCC1)n1ncc2cc(OCCc3ccc4c(n3)NCCC4)ccc21 (centres unmarked) [Example 164, 3-cyclohexyl-3-(5-(2-(5,6,7,8-tetrahydro-1,8-naphthyridin-2-yl)ethoxy)-1H-indazol-1-yl)propanoic acid]
540 nM	CS(=O)(=O)c1cncc([C@@H](CC(=O)O)n2ncc3cc(OCCc4ccc5c(n4)NCCC5)ccc32)c1 [Example 165, (R)-3-(5-(methylsulfonyl)pyridin-3-yl)-3-(5-(2-(5,6,7,8-tetrahydro-1,8-naphthyridin-2-yl)ethoxy)-1H-indazol-1-yl)propanoic acid]
5.2 nM	CS(=O)(=O)c1cncc([C@H](CC(=O)O)n2ncc3cc(OCCc4ccc5c(n4)NCCC5)ccc32)c1 [Example 166, (S)-3-(5-(methylsulfonyl)pyridin-3-yl)-3-(5-(2-(5,6,7,8-tetrahydro-1,8-naphthyridin-2-yl)ethoxy)-1H-indazol-1-yl)propanoic acid]
15 nM	COC(=O)NCc1cncc(C(CC(=O)O)n2ncc3cc(OCCc4ccc5c(n4)NCCC5)ccc32)c1 (centres unmarked) [Example 167, 3-(5-(((Methoxycarbonyl)amino)methyl)pyridin-3-yl)-3-(5-(2-(5,6,7,8-tetrahydro-1,8-naphthyridin-2-yl)ethoxy)-1H-indazol-1-yl)propanoic acid]
740 nM	COC(=O)NCc1cncc([C@@H](CC(=O)O)n2ncc3cc(OCCc4ccc5c(n4)NCCC5)ccc32)c1 [Example 168]
18 nM	CS(=O)(=O)NCc1cncc(C(CC(=O)O)n2ncc3cc(OCCc4ccc5c(n4)NCCC5)ccc32)c1 (centres unmarked) [Example 170]
46 nM	CC(=O)NCc1cncc(C(CC(=O)O)n2ncc3cc(OCCc4ccc5c(n4)NCCC5)ccc32)c1 (centres unmarked) [Example 171]
12 nM	O=C(O)CC(c1cnc2c(c1)CCCN2)n1ncc2cc(OCCc3ccc4c(n3)NCCC4)ccc21 (centres unmarked) [Example 172, 3-(5-(2-(5,6,7,8-Tetrahydro-1,8-naphthyridin-2-yl)ethoxy)-1H-indazol-1-yl)-3-(5,6,7,8-tetrahydro-1,8-naphthyridin-3-yl)propanoic acid]
370 nM	O=C(O)CCCNc1cncc(C(CC(=O)O)n2ncc3cc(OCCc4ccc5c(n4)NCCC5)ccc32)n1 (centres unmarked) [Example 173, 4-((6-(2-Carboxy-1-(5-(2-(5,6,7,8-tetrahydro-1,8-naphthyridin-2-yl)ethoxy)-1H-indazol-1-yl)ethyl)pyrazin-2-yl)amino)butanoic acid]
540 nM	COc1ccc(C(CC(=O)O)n2ncc3c(CCc4ccc5c(n4)NCCC5)cccc32)cn1 (centres unmarked) [Example 174, 3-(6-Methoxypyridin-3-yl)-3-(4-(2-(5,6,7,8-tetrahydro-1,8-naphthyridin-2-yl)ethyl)-1H-indazol-1-yl)propanoic acid]
47 nM	COc1ccc(C(CC(=O)O)n2ncc3cc(OCCc4ccc5c(n4)NCCN5C)ccc32)cn1 (centres unmarked) [Example 179, 3-(6-Methoxypyridin-3-yl)-3-(5-(2-(1-methyl-1,2,3,4-tetrahydropyrido[2,3-b]pyrazin-6-yl)ethoxy)-1H-indazol-1-yl)propanoic acid]
15 nM	COc1ccc([C@H](CC(=O)O)n2ncc3cc(OCCc4ccc5c(n4)NCCO5)ccc32)cn1 [Example 180, (S)-3-(5-(2-(3,4-dihydro-2H-pyrido[3,2-b][1,4]oxazin-6-yl)ethoxy)-1H-indazol-1-yl)-3-(6-methoxypyridin-3-yl)propanoic acid]
5000 nM	COc1ccc([C@@H](CC(=O)O)n2ncc3cc(OCCc4ccc5c(n4)NCCO5)ccc32)cn1 [Example 181, (R)-3-(5-(2-(3,4-dihydro-2H-pyrido[3,2-b][1,4]oxazin-6-yl)ethoxy)-1H-indazol-1-yl)-3-(6-methoxypyridin-3-yl)propanoic acid]
